Assay results published in patent publication US10145848B2, “Small-molecule hydrophobic tagging of fusion proteins and induced degradation of same” (YALE UNIVERSITY, priority 2010, dated 2018).

Tested on: NIH-3T3 cells expressing HA-HaloTag-H-RasG12V
Test: Tumor formation assay in nude mice
Assay type: in vivo
Conditions: 25 mg/kg or 100 mg/kg daily IP
Experimental: One hundred thousand NIH-3T3 cells expressing HA-HaloTag-H-RasG12V were injected into the flank of anesthetized 6-week old female nu/nu nude mice (Charles River Laboratories). Two hours later, the mice were IP injected with either vehicle (10 μl, volume, with 5 μl, DMSO and 5 μl, of Cremophor EL), 25 mg/kg HyT13 or 100 mg/kg HyT13. The drug injections continued daily until the end of the experiment. Upon the appearance of tumors on day 7, the tumors were measured daily with calipers, and their volumes were calculated using the formula: a(b)^2/2, where a and b represent the longest and shortest diameters of the tumor, respectively.
To examine whether the HaloTag:HyT13 based system could be used in mouse models to relieve the H-RasG12V-driven tumor burden, we first evaluated the pharmacokinetics of HyT13. We performed a maximum tolerated dose experiment with HyT13 in nude mice at doses up to 100 mg/kg over a 14-day treatment regimen. […] Next, we sought to determine the serum bioavailability of HyT13 following injections. HyT13 was administered at 25 mg/kg by intraperitoneal (IP) injection into Swiss Webster mice and the serum was collected at 1 and 24 hours post-injection. At 1 hour post HyT13 administration the blood serum concentration was approximately 2 μM, and by 24 hours the HyT13 concentration had dropped to about 500 nM (FIG. 10). […]

SMILES: O=C(CC12CC3CC(CC(C3)C1)C2)NCCOCCOCCCCCCCl [HyT13, 2-((3r,5r,7r)-Adamantan-1-yl)-N-(2-(2-((6-chlorohexyl)oxy)ethoxy)ethyl)acetamide]
- tumor size relative to vehicle treated mice (times smaller): 6 times
